One may read the inhibition as the drop in the measured response relative to a control, in per cent.

These results are taken from patent publication US20230072683A1, “PYRIDO-PYRIMIDIN DERIVATIVES AND PHARMACEUTICAL COMPOSITION, FOR USE IN PREVENTING OR TREATING PI3 KINASE RELATED DISEASES, COMPRISING SAME AS ACTIVE INGREDIENT” (BORYUNG PHARMACEUTICAL CO., LTD, priority 2019, published 2023).

Assay [1] deals with PI3K-δ (PI3K(p1108/p857) (h)) (Homo sapiens, UniProt O00329). Description: Evaluation of inhibitory activity against PI3K-δ (HTRF kinase assay). In kind it is biochemical. Particulars: for inhibition at 0.01 µM: compound concentration 0.01 μM, read-out: EXP_VALUE(% Inhibition) PI3K-δ 0.01 μM; for inhibition at 0.1 µM: read-out: EXP_VALUE(% Inhibition) PI3K-δ 0.1 μM. On the procedure:
<Experimental Example 1> Evaluation of Inhibitory Activity Properties Against PI3K-δ
The following experiments were performed to verify the inhibitory activity against PI3K-δ with regard to each of the compounds of Examples 1 to 441 according to the present invention.
PI3K(p1108/p857) (h) was incubated in assay buffer comprising 10 μM phosphatidylinositol-4,5-bisphosphate and Mg/ATP (at a concentration as required). The reaction was initiated by the addition of a Mg/ATP mixture, and after incubation for 30 minutes at room temperature, a stop solution comprising EDTA and phosphatidylinositol-3,4,5-triphosphate was added to stop the reaction and carry out biotinylation.
A detection buffer comprising Eu (europium)-labelled anti-GST monoclonal antibody, GST-tagged GRP1 PH domain and streptavidin-allophycocyanin was added. A plate was read in a time-resolved fluorescence mode and a homogeneous time-resolved fluorescence (HTRF) signal was determined according to HTRF=10000×(Em 665 nm/Em 620 nm).

For the next assay, the target named is DNA-PK(h) (Homo sapiens, UniProt P78527). Description: Evaluation of inhibitory activity against DNA-PK (HTRF kinase assay, GST-cMyc-p53 substrate). In kind it is biochemical. Particulars: for inhibition at 0.01 µM: compound concentration 0.01 μM, read-out: EXP_VALUE(% Inhibition) DNA-PK(h) 0.01 μM; for inhibition at 0.1 µM: read-out: EXP_VALUE(% Inhibition) DNA-PK(h) 0.1 μM. On the procedure:
<Experimental Example 2> Evaluation of Inhibitory Activity Properties Against DNA-PK
The following experiments were performed to verify the inhibitory activity against DNA-PK with regard to each of the compounds of Examples 1 to 441 according to the present invention.
DNA-PK(h) was subjected to an isothermal treatment in an assay buffer comprising […] GST-cMyc-p53 and Mg/ATP (at a concentration as required). The reaction was initiated by the addition of a Mg/ATP mixture, and after incubation for 30 minutes at room temperature, a stop solution comprising EDTA was added to stop the reaction. A detection buffer comprising d2-labelled anti-GST monoclonal antibody and Europium-labelled anti-phospho Ser15 antibody for phosphorylated p53 was added. A plate was read in a time-resolved fluorescence mode and a homogeneous time-resolved fluorescence (HTRF) signal was determined according to HTRF=10000×(Em 665 nm/Em 620 nm).
Background: In TR-FRET formats the signal depends on donor and acceptor labels being close together.

Read-outs that look alike come from different tables or passages of the source.

Chain of PI3K-δ (PI3K(p1108/p857) (h)) (O00329 whole entry): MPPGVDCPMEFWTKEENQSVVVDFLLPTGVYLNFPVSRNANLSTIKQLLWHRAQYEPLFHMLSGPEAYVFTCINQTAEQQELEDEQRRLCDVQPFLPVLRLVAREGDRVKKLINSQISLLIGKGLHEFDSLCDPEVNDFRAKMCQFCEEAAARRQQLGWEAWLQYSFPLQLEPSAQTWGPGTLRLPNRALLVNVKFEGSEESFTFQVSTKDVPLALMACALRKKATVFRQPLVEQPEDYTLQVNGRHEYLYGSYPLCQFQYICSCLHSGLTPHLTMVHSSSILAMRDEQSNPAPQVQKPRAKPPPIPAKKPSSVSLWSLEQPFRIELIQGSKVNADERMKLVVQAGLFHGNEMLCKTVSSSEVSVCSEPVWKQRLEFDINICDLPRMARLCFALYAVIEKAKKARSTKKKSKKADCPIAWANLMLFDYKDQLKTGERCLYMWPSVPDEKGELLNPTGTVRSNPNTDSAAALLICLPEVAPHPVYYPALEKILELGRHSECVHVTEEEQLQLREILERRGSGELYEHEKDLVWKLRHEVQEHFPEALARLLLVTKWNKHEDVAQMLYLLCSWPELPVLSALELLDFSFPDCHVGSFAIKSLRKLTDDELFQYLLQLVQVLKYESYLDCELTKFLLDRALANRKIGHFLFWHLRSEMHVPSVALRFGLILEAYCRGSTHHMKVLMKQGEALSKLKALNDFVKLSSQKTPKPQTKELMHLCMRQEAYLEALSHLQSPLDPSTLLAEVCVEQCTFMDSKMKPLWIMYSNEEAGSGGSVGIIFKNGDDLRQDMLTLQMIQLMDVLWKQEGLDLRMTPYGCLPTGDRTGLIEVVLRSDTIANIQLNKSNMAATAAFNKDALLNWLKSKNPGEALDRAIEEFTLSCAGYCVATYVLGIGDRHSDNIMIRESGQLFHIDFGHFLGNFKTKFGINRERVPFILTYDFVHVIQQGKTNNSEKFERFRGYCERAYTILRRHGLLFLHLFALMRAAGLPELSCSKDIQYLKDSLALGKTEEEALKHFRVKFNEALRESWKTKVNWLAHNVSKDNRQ
Chain of PI3K-δ (PI3K(p1108/p857) (h)) (P27986 whole entry partner): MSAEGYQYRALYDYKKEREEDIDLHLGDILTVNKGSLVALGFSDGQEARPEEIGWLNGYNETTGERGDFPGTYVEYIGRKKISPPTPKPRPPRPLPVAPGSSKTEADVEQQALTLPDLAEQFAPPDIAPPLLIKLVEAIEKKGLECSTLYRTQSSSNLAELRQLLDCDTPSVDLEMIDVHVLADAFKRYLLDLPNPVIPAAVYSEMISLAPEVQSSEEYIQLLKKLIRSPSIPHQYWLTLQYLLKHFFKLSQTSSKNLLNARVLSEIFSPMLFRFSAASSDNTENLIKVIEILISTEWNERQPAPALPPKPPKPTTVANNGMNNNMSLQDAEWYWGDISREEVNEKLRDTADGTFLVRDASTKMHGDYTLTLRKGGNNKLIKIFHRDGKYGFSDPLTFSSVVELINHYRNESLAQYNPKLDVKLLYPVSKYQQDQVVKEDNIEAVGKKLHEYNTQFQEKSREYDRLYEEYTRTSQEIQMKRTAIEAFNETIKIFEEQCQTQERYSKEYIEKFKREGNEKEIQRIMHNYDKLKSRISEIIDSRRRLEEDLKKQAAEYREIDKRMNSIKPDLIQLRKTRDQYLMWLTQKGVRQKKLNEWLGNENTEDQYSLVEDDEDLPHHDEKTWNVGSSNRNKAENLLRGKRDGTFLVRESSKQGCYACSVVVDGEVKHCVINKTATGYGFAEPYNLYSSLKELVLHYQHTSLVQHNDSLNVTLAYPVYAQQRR

`C[C@H](Nc1ncnc2[nH]ccc(=O)c12)c1c(Cl)c2cccc(C#Cc3cncnc3)c2c(=O)n1-c1ccccc1` [Example 316, (S)-4-((1-(4-chloro-1-oxo-2-phenyl-8-(pyrimidin-5-ylethynyl)-1,2-dihydroisoquinolin-3-yl)ethyl)amino)pyrido[2,3-d]pyrimidin-5(8H)-one]: the inhibition at 0.01 µM in assay [1] turned out to be 43%; on DNA-PK(h), 88%. The inhibition at 0.1 µM in assay [1] (compound concentration 0.1 μM) is 91%; at DNA-PK(h) (compound concentration 0.1 μM), 99%.

Regarding `C[C@H](Nc1ncnc2[nH]ccc(=O)c12)c1c(Cl)c2cccc(N3CCOCC3)c2c(=O)n1-c1ccccc1` [Example 251, (S)-4-((1-(4-chloro-8-morpholino-1-oxo-2-phenyl-1,2-dihydroisoquinolin-3-yl)ethyl)amino)pyrido[2,3-d]pyrimidin-5(8H)-one], the results for the inhibition at 0.01 µM (in assay [1]; on DNA-PK(h)) were 65% and 6%, respectively. The inhibition at 0.1 µM in assay [1] (compound concentration 0.1 μM) is 109%; at DNA-PK(h) (compound concentration 0.1 μM), 60%.

Take `C[C@H](Nc1ncnc2[nH]ccc(=O)c12)c1c(Cl)c2cccc(C#Cc3cncs3)c2c(=O)n1-c1ccccc1` [Example 313, (S)-4-((1-(4-chloro-1-oxo-2-phenyl-8-(thiazol-5-ylethynyl)-1,2-dihydroisoquinolin-3-yl)ethyl)amino)pyrido[2,3-d]pyrimidin-5(8H)-one]: the inhibition at 0.01 µM in assay [1] is 20.2%; at DNA-PK(h) it was 47.2%. Also, the inhibition at 0.1 µM in assay [1] (compound concentration 0.1 μM) is 55%; on DNA-PK(h) (compound concentration 0.1 μM), 84.6%.

As to `Cc1c(F)cccc1-c1cccc2c(Cl)c([C@H](C)Nc3ncnc4[nH]ccc(=O)c34)n(-c3ccccc3)c(=O)c12` [Example 109, (S)-4-((1-(4-chloro-8-(3-fluoro-2-methylphenyl)-1-oxo-2-phenyl-1,2-dihydroisoquinolin-3-yl)ethyl)amino)pyrido[2,3-d]pyrimidin-5(8H)-one], the results for the inhibition at 0.01 µM (in assay [1]; at DNA-PK(h)) were 61% and 10%, respectively. Also, the inhibition at 0.1 µM stood at 94% in assay [1] (compound concentration 0.1 μM) and 65% at DNA-PK(h) (compound concentration 0.1 μM).

As to `C[C@H](Nc1ncnc2[nH]ccc(=O)c12)c1c(Cl)c2cccc(-c3cnc(N(C)C)nc3)c2c(=O)n1-c1ccccc1` [Example 112, (S)-4-((1-(4-chloro-8-(2-(dimethylamino)pyrimidin-5-yl)-1-oxo-2-phenyl-1,2-dihydroisoquinolin-3-yl)ethyl)amino)pyrido[2,3-d]pyrimidin-5(8H)-one], the inhibition at 0.01 µM in assay [1] is 92%; at DNA-PK(h) it was 78%. Further, the inhibition at 0.1 µM in assay [1] (compound concentration 0.1 μM) amounted to 96%; at DNA-PK(h) (compound concentration 0.1 μM), 97%.

Turning to `CCNc1cccc2c(Cl)c([C@H](C)Nc3ncnc4[nH]ccc(=O)c34)n(-c3ccccc3)c(=O)c12` [Example 325, (S)-4-((1-(4-chloro-8-(ethylamino)-1-oxo-2-phenyl-1,2-dihydroisoquinolin-3-yl)ethyl)amino)pyrido[2,3-d]pyrimidin-5(8H)-one], the inhibition at 0.01 µM came to 22% in assay [1] and 12% at DNA-PK(h). Moreover, the inhibition at 0.1 µM came out at 65% in assay [1] (compound concentration 0.1 μM) and 59% at DNA-PK(h) (compound concentration 0.1 μM).

`CC(C)Oc1ncc(-c2cccc3c(Cl)c([C@H](C)Nc4ncnc5[nH]ccc(=O)c45)n(-c4ccccc4)c(=O)c23)cn1` [Example 182, (S)-4-((1-(4-chloro-8-(2-isopropoxypyrimidin-5-yl)-1-oxo-2-phenyl-1,2-dihydroisoquinolin-3-yl)ethyl)amino)pyrido[2,3-d]pyrimidin-5(8H)-one]: the inhibition at 0.01 µM in assay [1] was found to be 85%; at DNA-PK(h) it was 64%.

On to `C[C@H](Nc1ncnc2[nH]ccc(=O)c12)c1c(Cl)c2cccc(-c3nc4ccccc4o3)c2c(=O)n1-c1ccccc1` [Example 317, (S)-4-((1-(8-(benzo[d]oxazol-2-yl)-4-chloro-1-oxo-2-phenyl-1,2-dihydroisoquinolin-3-yl)ethyl)amino)pyrido[2,3-d]pyrimidin-5(8H)-one], for which the results for the inhibition at 0.01 µM (in assay [1]; at DNA-PK(h)) were 45% and 64%, respectively. Further, the inhibition at 0.1 µM in assay [1] (compound concentration 0.1 μM) was 86%; on DNA-PK(h) (compound concentration 0.1 μM) it was 96%.

Consider `Cc1ncccc1-c1cccc2c(Cl)c([C@H](C)Nc3ncnc4[nH]ccc(=O)c34)n(-c3ccccc3)c(=O)c12` [Example 110, (S)-4-((1-(4-chloro-8-(2-methylpyridin-3-yl)-1-oxo-2-phenyl-1,2-dihydroisoquinolin-3-yl)ethyl)amino)pyrido[2,3-d]pyrimidin-5(8H)-one], for which the figures for the inhibition at 0.01 µM (in assay [1]; at DNA-PK(h)) were 93% and 57%, respectively. The inhibition at 0.1 µM in assay [1] (compound concentration 0.1 μM) was determined as 97%; at DNA-PK(h) (compound concentration 0.1 μM) it was 91%.

As to `C[C@H](Nc1ncnc2[nH]ccc(=O)c12)c1c(Cl)c2cccc(-c3ccc4nsnc4c3)c2c(=O)n1-c1ccccc1` [Example 233, (S)-4-((1-(8-(benzo[c][1,2,5]thiadiazol-5-yl)-4-chloro-1-oxo-2-phenyl-1,2-dihydroisoquinolin-3-yl)ethyl)amino)pyrido[2,3-d]pyrimidin-5(8H)-one], the inhibition at 0.01 µM amounted to 77% in assay [1] and 60% at DNA-PK(h).

Consider `C[C@H](Nc1ncnc2[nH]ccc(=O)c12)c1c(Cl)c2cccc(-c3cn[nH]c3)c2c(=O)n1-c1ccccc1` [Example 227, (S)-4-((1-(4-chloro-1-oxo-2-phenyl-8-(1H-pyrazol-4-yl)-1,2-dihydroisoquinolin-3-yl)ethyl)amino)pyrido[2,3-d]pyrimidin-5(8H)-one], for which the inhibition at 0.01 µM in assay [1] was determined as 93%; at DNA-PK(h), 73%.

In the case of `C[C@H](Nc1ncnc2[nH]ccc(=O)c12)c1c(Cl)c2cccc(C(=O)NCCN3CCOCC3)c2c(=O)n1-c1ccccc1` [Example 281, (S)-4-chloro-N-(2-morpholinoethyl)-1-oxo-3-(1-((5-oxo-5,8-dihydropyrido[2,3-d]pyrimidin-4-yl)amino)ethyl)-2-phenyl-1,2-dihydroisoquinoline-8-carboxamide], the figures for the inhibition at 0.01 µM (in assay [1]; on DNA-PK(h)) were 75% and 13%, respectively.

With `C[C@H](Nc1ncnc2[nH]ccc(=O)c12)c1c(Cl)c2cccc(C#Cc3cnn(C)c3)c2c(=O)n1-c1ccccc1` [Example 309, (S)-4-((1-(4-chloro-8-((1-methyl-1H-pyrazol-4-yl)ethynyl)-1-oxo-2-phenyl-1,2-dihydroisoquinolin-3-yl)ethyl)amino)pyrido[2,3-d]pyrimidin-5(8H)-one], the inhibition at 0.01 µM in assay [1] is 42.4%; on DNA-PK(h), 23.2%. For the same compound, the inhibition at 0.1 µM in assay [1] (compound concentration 0.1 μM) amounted to 65.6%; at DNA-PK(h) (compound concentration 0.1 μM) it was 64.8%.

As to `C[C@H](Nc1ncnc2[nH]ccc(=O)c12)c1c(Cl)c2cccc(C(=O)NC3CCC3)c2c(=O)n1-c1ccccc1` [Example 277, (S)-4-chloro-N-cyclobutyl-1-oxo-3-(1-((5-oxo-5,8-dihydropyrido[2,3-d]pyrimidin-4-yl)amino)ethyl)-2-phenyl-1,2-dihydroisoquinoline-8-carboxamide], the figures for the inhibition at 0.01 µM (in assay [1]; at DNA-PK(h)) were 99% and 8%, respectively.

For the compound `C[C@H](Nc1ncnc2[nH]ccc(=O)c12)c1c(Cl)c2cccc(NCCc3ccc(Cl)cc3)c2c(=O)n1-c1ccccc1` [Example 335, (S)-4-((1-(4-chloro-8-((4-chlorophenethyl)amino)-1-oxo-2-phenyl-1,2-dihydroisoquinolin-3-yl)ethyl)amino)pyrido[2,3-d]pyrimidin-5(8H)-one], the inhibition at 0.01 µM in assay [1] was found to be 31%; at DNA-PK(h), 13%. Also, the inhibition at 0.1 µM in assay [1] (compound concentration 0.1 μM) was found to be 95%; at DNA-PK(h) (compound concentration 0.1 μM), 52%.

Regarding `C[C@H](Nc1ncnc2[nH]ccc(=O)c12)c1c(Cl)c2cccc(S(=O)(=O)c3ccc(Cl)cc3)c2c(=O)n1-c1ccccc1` [Example 393, (S)-4-((1-(4-chloro-8-((4-chlorophenyl)sulfonyl)-1-oxo-2-phenyl-1,2-dihydroisoquinolin-3-yl)ethyl)amino)pyrido[2,3-d]pyrimidin-5(8H)-one], the inhibition at 0.1 µM is 84% in assay [1] (compound at 0.1 μM) and 17% on DNA-PK(h) (compound at 0.1 μM).

With `C[C@H](Nc1ncnc2[nH]ccc(=O)c12)c1c(Cl)c2cccc(-c3cnc(C(C)(C)C)nc3)c2c(=O)n1-c1ccccc1` [Example 208, (S)-4-((1-(8-(2-(tert-butyl)pyrimidin-5-yl)-4-chloro-1-oxo-2-phenyl-1,2-dihydroisoquinolin-3-yl)ethyl)amino)pyrido[2,3-d]pyrimidin-5(8H)-one], the inhibition at 0.01 µM in assay [1] amounted to 68%; on DNA-PK(h) it was 58%.
